Reference: publication PMC4593760 (Nuclear medicine and biology, 2015)

Target: NTR1 (Homo sapiens, UniProt P30989)
Assay: In vitro competitive binding on HT-29 cells against 177Lu-N1

NTR1, sequence (P30989 whole entry): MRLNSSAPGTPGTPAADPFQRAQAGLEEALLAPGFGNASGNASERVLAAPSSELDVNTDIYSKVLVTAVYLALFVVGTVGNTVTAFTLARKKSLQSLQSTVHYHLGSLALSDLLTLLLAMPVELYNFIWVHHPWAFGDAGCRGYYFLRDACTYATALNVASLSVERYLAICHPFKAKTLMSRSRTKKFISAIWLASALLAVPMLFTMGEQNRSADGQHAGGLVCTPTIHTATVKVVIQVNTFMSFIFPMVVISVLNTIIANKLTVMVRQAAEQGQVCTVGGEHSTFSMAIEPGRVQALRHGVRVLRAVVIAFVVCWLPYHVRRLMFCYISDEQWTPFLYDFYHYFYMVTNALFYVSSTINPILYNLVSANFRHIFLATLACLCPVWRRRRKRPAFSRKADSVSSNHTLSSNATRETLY

| Structure (SMILES) | IC50 [nM] |
| --- | --- |
| Cc1cc(O)cc(C)c1C[C@H](NC(=O)[C@@H]1CCCN1C(=O)[C@H](CCCNC(=N)N)NC(=O)[C@H](CCCNC(=N)N)N(C)C(=O)[C@@H]1CCCN1C(=O)[C@H](CCCCN)NC(=O)CCNC(=O)CN1CCN(CC(=O)O)CCN(CC(=O)O)CCN(CC(=O)O)CC1)C(=O)N[C@H](C(=O)N[C@@H](CC(C)C)C(=O)O)C(C)(C)C [N1, DOTA-β-Ala-Lys-Pro-(N-Me)Arg-Arg-Pro-Dmt-Tle-Leu-OH] | 27.6 ± 1.3 |
| Cc1cc(O)cc(C)c1C[C@H](NC(=O)[C@@H]1CCCN1C(=O)[C@H](CCCNC(=N)N)NC(=O)[C@H](CCCNC(=N)N)N(C)C(=O)[C@@H]1CCCN1C(=O)[C@H](CCCCN)NC(=O)CN1CCN(CC(=O)O)CCN(CC(=O)O)CCN(CC(=O)O)CC1)C(=O)N[C@H](C(=O)N[C@@H](CC(C)C)C(=O)O)C(C)(C)C [N0, DOTA-Lys-Pro-(N-Me)Arg-Arg-Pro-Dmt-Tle-Leu-OH] | 52.3 ± 1.5 |
